From patent publication US9642815B2, “Biocompatible graphene quantum dots for drug delivery and bioimaging applications” (Council of Scientific and Industrial Research, priority 2013, dated 2017)
Entries after “also recorded” stand apart in the source; their conditions may differ.

System: ROS
Assay: Cell free ROS assay with H2O2 and H2DCF indicator
Conditions: free PEG added to C-GQDs (FIG. 18B)
Method: The samples (C-GQDs, H-GQDs, S-GQDs and P-GQDs) were incubated with H2O2 in 10% fetal bovine serum (FBS) solution at 37° C. Chemically hydrolyzed 2,7-dichlorodihydrofluorescein diacetate (H2DCF-DA), yielding H2DCF, was used as a fluorescent indicator of ROS production. The increase in ROS over 90 min with 10 μM and 20 μM H2O2 in the presence and absence of GQDs were monitored. In the case of C-GQDs and H-GQDs incubated with 20 μM H2O2, the ROS production increased ˜3 and ˜4 times respectively (FIG. 7A). […] Thus, confirming again the ROS quenching ability of PEG. […] The H-GQDs produced more ROS than C-GQDs, likely because of more free-radical-susceptible hydroxyl groups on the surface generated by the hydrothermal treatment.

## polyethylene glycol [free PEG]
  ROS quenching by free PEG in solution along with C-GQD: did not quench the ROS produced in solution; also recorded: No significant quenching
